According to patent US11339144B2 (Navitor Pharmaceuticals, Inc., priority 2017, dated 2022):

What was measured:
[1] = biological target: HA-GST-Rheb (GTP-γ-S loaded) activating mTORC1 (Homo sapiens (Human), UniProt Q15382); experiment: Rheb-dependent in vitro kinase assay (Rheb-IVK; LanthaScreen or Western readout); assay type: biochemical; conditions: Rheb-dependent in vitro kinase assay; read-out: IVK IC50
Rheb = Rheb (Homo sapiens (Human), UniProt Q15382); experiment: Affinity Selection Mass Spectrometry (ASMS); assay type: binding; conditions: affinity (R3/R0) in Affinity Selection Mass Spectrometry assay
Method in brief: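 Human Rheb (60 μM) with GDP (180 μM) and each compound at 2 μM, protein-plus versus protein-minus, incubated 30 min at room temperature, then washed by 10 kDa ultrafiltration. Retained ligand was released with MeCN and detected by UPLC-Q-TOF MS.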

Chain of Rheb (Q15382 1-169 limits assumed): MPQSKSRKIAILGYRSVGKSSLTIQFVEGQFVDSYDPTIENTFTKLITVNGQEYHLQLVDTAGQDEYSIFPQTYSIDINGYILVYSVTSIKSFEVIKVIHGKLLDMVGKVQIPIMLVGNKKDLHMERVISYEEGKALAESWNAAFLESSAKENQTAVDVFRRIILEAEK
Chain of HA-GST-Rheb (GTP-γ-S loaded) activating mTORC1 (Q15382 1-181): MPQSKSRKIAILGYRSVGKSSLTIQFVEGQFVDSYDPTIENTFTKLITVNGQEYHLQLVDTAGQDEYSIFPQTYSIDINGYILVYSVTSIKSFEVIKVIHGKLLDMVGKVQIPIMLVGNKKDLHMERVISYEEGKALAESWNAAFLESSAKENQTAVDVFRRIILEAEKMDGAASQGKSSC

Structure (SMILES): CN1CCC(CCNC(=O)c2cc3c(Sc4ccc(Cl)cc4Cl)cc(Cl)c(Cl)c3[nH]2)CC1 [I-27]
- IC50 [1]: > 100 µM
- ASMS (R3/R0) (Rheb): B (an affinity (R3/R0) between 100% and 20%)

Structure (SMILES): O=C(O)c1cc2c(Br)cc(Sc3ccc(Cl)c(Cl)c3)cc2[nH]1 [I-139, 4-bromo-6-(3,4-dichlorophenylthio)-1H-indole-2-carboxylic acid]
- IC50 [1]: < 10 µM
- ASMS (R3/R0) (Rheb): B (an affinity (R3/R0) between 100% and 20%)

Structure (SMILES): OCc1nc2c(OCC3CCC(O)CC3)c(Cl)c(Cl)cc2[nH]1 (stereo not drawn) [I-399, 4-((5,6-dichloro-2-(hydroxymethyl)-1H-benzo[d]imidazol-4-yloxy)methyl)cyclohexanol]
- IC50 [1]: 10 to 100 µM
- ASMS (R3/R0) (Rheb): C (an affinity (R3/R0)<20%)

Structure (SMILES): OCc1nc2c(OCc3ccccc3)cc(Cl)cc2[nH]1 [I-493]
- IC50 [1]: > 100 µM
- ASMS (R3/R0) (Rheb): C (an affinity (R3/R0)<20%)

Structure (SMILES): CN(C)C(=O)c1ccc(Cn2c(C(=O)O)cc3c(Br)cc(SCCc4ccc(Cl)c(Cl)c4)cc32)cc1 [I-25, 4-bromo-6-(3,4-dichlorophenethylthio)-1-(4-(dimethylcarbamoyl)benzyl)-1H-indole-2-carboxylic acid]
- IC50 [1]: < 10 µM
- ASMS (R3/R0) (Rheb): B (an affinity (R3/R0) between 100% and 20%)

Structure (SMILES): CN(C)C(=O)c1ccc(Cn2c(C(=O)O)cc3ccc(Sc4ccc(Oc5ccccc5)cc4)cc32)cc1 [I-17, 1-(4-(dimethylcarbamoyl)benzyl)-6-(4-phenoxyphenylthio)-1H-indole-2-carboxylic acid]
- IC50 [1]: < 10 µM
- ASMS (R3/R0) (Rheb): B (an affinity (R3/R0) between 100% and 20%)

Structure (SMILES): OCc1nc2cc(OCc3ccc(Cl)cc3)c(Cl)cc2[nH]1 [I-486, (6-chloro-5-(4-chlorobenzyloxy)-1H-benzo[d]imidazol-2-yl)methanol]
- IC50 [1]: > 100 µM
- ASMS (R3/R0) (Rheb): A (an affinity (R3/R0)>100%)

Structure (SMILES): CN1CC(NC(=O)c2cc3c(Sc4ccc(Cl)cc4)cc(Cl)cc3[nH]2)C1 [I-71, 6-chloro-4-(4-chlorophenylthio)-N-(1-methylazetidin-3-yl)-1H-indole-2-carboxamide]
- IC50 [1]: < 10 µM
- ASMS (R3/R0) (Rheb): B (an affinity (R3/R0) between 100% and 20%)

Structure (SMILES): O=C(NCC1CCN(Cc2ccccc2)C1)c1cc2c(Sc3ccc(Cl)cc3)cc(Cl)cc2[nH]1 (stereo not drawn) [I-136]
- IC50 [1]: > 100 µM
- ASMS (R3/R0) (Rheb): A (an affinity (R3/R0)>100%)

Structure (SMILES): CN(C)C(=O)c1ccc(Cn2c(C(=O)O)cc3c(Br)cc(SC4CCOCC4)cc32)cc1 [I-12, 4-bromo-1-(4-(dimethylcarbamoyl)benzyl)-6-(tetrahydro-2H-pyran-4-ylthio)-1H-indole-2-carboxylic acid]
- IC50 [1]: 10 to 100 µM
- ASMS (R3/R0) (Rheb): C (an affinity (R3/R0)<20%)

Structure (SMILES): Cn1c(CO)nc2cc(OCc3ccccc3)c(Cl)cc21 [I-425, (5-(benzyloxy)-6-chloro-1-methyl-1H-benzo[d]imidazol-2-yl)methanol]
- IC50 [1]: > 3 µM
- ASMS (R3/R0) (Rheb): C (an affinity (R3/R0)<20%)

Structure (SMILES): O=C1CCC(CNC(=O)c2cc3c(Sc4ccc(Cl)cc4)cc(Cl)cc3[nH]2)N1 (stereo not drawn) [I-147]
- IC50 [1]: > 100 µM
- ASMS (R3/R0) (Rheb): A (an affinity (R3/R0)>100%)

Structure (SMILES): OCc1cc2c(Oc3ccccc3)c(Cl)c(Cl)cc2[nH]1 [I-250, (5,6-Dichloro-4-phenoxy-1H-indol-2-yl)methanol]
- IC50 [1]: 10 to 100 µM
- ASMS (R3/R0) (Rheb): B (an affinity (R3/R0) between 100% and 20%)

Structure (SMILES): O[C@@H]1CCC[C@@H](COc2c(Cl)c(Cl)cc3[nH]c(-c4ccncc4)nc23)C1 [I-323]
- IC50 [1]: > 3 µM
- ASMS (R3/R0) (Rheb): B (an affinity (R3/R0) between 100% and 20%)

Structure (SMILES): CN(C)C(=O)c1ccc(Cn2c(CN)cc3c(Br)cc(Sc4ccc(Cl)c(Cl)c4)cc32)cc1 [I-37]
- IC50 [1]: > 100 µM
- ASMS (R3/R0) (Rheb): C (an affinity (R3/R0)<20%)

Structure (SMILES): CN(C)C(=O)c1ccc(Cn2c(C(=O)O)cc3c(C#N)cc(Sc4ccc(Cl)c(Cl)c4)cc32)cc1 [I-7, 4-cyano-6-(3,4-dichlorophenylthio)-1-(4-(dimethylcarbamoyl)benzyl)-1H-indole-2-carboxylic acid]
- IC50 [1]: < 10 µM
- ASMS (R3/R0) (Rheb): B (an affinity (R3/R0) between 100% and 20%)

Structure (SMILES): CN1CCC(CNC(=O)c2cc3c(Br)cc(Sc4ccc5ccccc5c4)cc3n2Cc2ccc(C(=O)N(C)C)cc2)CC1 [I-23]
- IC50 [1]: > 100 µM
- ASMS (R3/R0) (Rheb): B (an affinity (R3/R0) between 100% and 20%)

Structure (SMILES): O=C(NCCn1ccc2ccccc21)c1cc2c(Sc3ccc(Cl)cc3)cc(Cl)cc2[nH]1 [I-131]
- IC50 [1]: > 100 µM
- ASMS (R3/R0) (Rheb): B (an affinity (R3/R0) between 100% and 20%)

Structure (SMILES): O=C(O)c1cc2c(Sc3ccc(Cl)cc3)cc(Cl)cc2[nH]1 [I-190, 6-chloro-4-(4-chlorophenylthio)-1H-indole-2-carboxylic acid]
- IC50 [1]: 10 to 100 µM
- ASMS (R3/R0) (Rheb): B (an affinity (R3/R0) between 100% and 20%)

Structure (SMILES): OCc1nc2cc(OCc3ccc(Cl)cc3)c(Cl)c(Cl)c2[nH]1 [I-375, (6,7-dichloro-5-(4-chlorobenzyloxy)-1H-benzo[d]imidazol-2-yl)methanol]
- IC50 [1]: < 10 µM
- ASMS (R3/R0) (Rheb): A (an affinity (R3/R0)>100%)

Structure (SMILES): O=C(Nc1cccnc1)c1ccc(Cn2c(C(=O)O)cc3c(Br)cc(Oc4ccccc4)cc32)cc1 [I-56, 4-bromo-6-phenoxy-1-(4-(pyridin-3-ylcarbamoyl)benzyl)-1H-indole-2-carboxylic acid]
- IC50 [1]: 10 to 100 µM
- ASMS (R3/R0) (Rheb): B (an affinity (R3/R0) between 100% and 20%)
